Values of other authors, collected in patent US20140141213A1, “PHOTOCURABLE INK COMPOSITION, INK JET RECORDING METHOD, RECORDED MATTER, INK SET, INK CARTRIDGE, AND RECORDING APPARATUS” (Seiko Epson Corporation, priority 2009, published 2014).

Conditions: primary irritation index

| Compound | P.I.I |
| --- | --- |
| C=C(C)C(=O)OCCCCCCOC(=O)C(=C)C [1,6-Hexanediol dimethacrylate] | 0.5 |
| C=CC(=O)OCCCCCCCCCOC(=O)C=C [1,9-Nonanediol diacrylate] | 2.0 |
| C=C(C)C(=O)OCC(O)COC(=O)C(=C)C [2-Hydroxy-1,3-dimethacryloxypropane] | 0.6 |
| C=CC(=O)OCC1COC(C)(CC)O1 (centres unmarked) [(2-Methyl-2-ethyl-1,3-dioxolane-4-yl)methyl acrylate] | 1.3 |
| C=CC(=O)OCC1COC(C)(CC(C)C)O1 (centres unmarked) [(2-Methyl-2-isobutyl-1,3-dioxolane-4-yl)methyl acrylate] | 1.0 |
| C=C(C)C(=O)OCCOCCOC(=O)C(=C)C [Diethylene glycol dimethacrylate] | 0.5 |
| C=C(C)C(=O)OCCOC(=O)C(=C)C [Ethylene glycol dimethacrylate] | 0.6 |
| C=CC(=O)O[C@@H]1C[C@H]2CC[C@]1(C)C2(C)C [Isobornyl acrylate] | 0.6 |
| C=CC(=O)OCCOCCOC [Methoxy diethylene glycol monoacrylate] | 0.7 |
| C=C(C)C(=O)OCC(C)(C)COC(=O)C(=C)C [Neopentyl glycol dimethacrylate] | 0.0 |
| C=CC(=O)OCCOc1ccccc1 [Phenoxyethyl acrylate] | 1.7 |
| C=C(C)C(=O)OCCOCCOCCOCCOC(=O)C(=C)C [Tetraethylene glycol dimethacrylate] | 0.5 |
| C=C(C)C(=O)OCC(CC)(COC(=O)C(=C)C)COC(=O)C(=C)C [Trimethylolpropane trimethacrylate] | 0.8 |
| C=CC(=O)OCC(C)OCC(C)OCC(C)OC(=O)C=C (centres unmarked) [Tripropylene glycol diacrylate] | 1.6 |
| Polyethylene glycol #400 diacrylate | 0.4 |
| Trimethylolpropane PO-modified triacrylate | 0.1 |
| Trimethylolpropane-modified triacrylate | 1.5 |
